Legend:
Assay in all cases: Whole blood assay, LPS stimulation, MSD cytokine detection
IL-6 = format: cell-based; conditions: fresh whole bovine blood
IL-1β = format: cell-based, bovine; conditions: fresh whole bovine blood, LPS stimulation; drug concentration giving overstimulation (OS) of IL-1β
Description: (§1) Compounds of the invention were evaluated against a positive control for their ability to inhibit LPS-induced IL-1p and TNF-α as an overall evaluation of relative potency and modulation of target pathways.
(§2) In the bovine whole blood in vitro screening assay the inhibition of TNFα as induced by stimulation by lipopolysaccharide (LPS) and as measured by half the maximal inhibitory concentration (IC50) is recognized as the primary biomarker of immunomodulation potency upon pretreatment with the compounds of the invention. IL-1β is a mediator of the inflammation response and is involved in a number of cellular activities including proliferation, differentiation and apoptosis. IL-1β is also released upon cellular stress or cytotoxicity or upon TLR stimulation. In the bovine whole blood assay the stimulation of IL-1β release upon increasing concentration of test compound is seen as a potential cellular toxicity signal as induced by the test compound. In order to estimate a therapeutic index from the in vitro assay a differential between the TNFα IC50 (immunomodulation potency) versus the perceived cellular toxicity concentration (IL-1β release or overstimulation) was utilized. […] As the in vitro assay index approaches 1 it is proposed that the balance between immunomodulation and cytotoxicity would be too narrow in order to achieve an efficacious dose in vivo.

TNF-α = format: cell-based; conditions: fresh whole bovine blood
Description: as §1, §2

| SMILES | IC50 (IL-6) [µM] | IL-1ß OS of LPS (IL-1β) [µM] | IC50 (TNF-α) [µM] |
| --- | --- | --- | --- |
| CC[C@H]1OC(=O)[C@H](C)[C@@H](O)[C@H](C)[C@@H](O[C@@H]2O[C@H](C)C[C@H](N(C)C(=O)N(C)C)[C@H]2Oc2ccc(F)cc2C)[C@](C)(O)C[C@@H](C)CN[C@H](C)[C@@H](O)[C@]1(C)O [Example C-25] | 25 | 40 | 59 |
| CC[C@H]1OC(=O)[C@H](C)[C@@H](O)[C@H](C)[C@@H](O[C@@H]2O[C@H](C)C[C@H](N(C)C(=O)N(C)c3ccccc3)[C@H]2Oc2ccc(Cl)nc2)[C@](C)(O)C[C@@H](C)CN[C@H](C)[C@@H](O)[C@]1(C)O [Example C-33] | < 1 | 16 | 6 |
| CC[C@H]1OC(=O)[C@H](C)[C@@H](O)[C@H](C)[C@@H](O[C@@H]2O[C@H](C)C[C@H](N(C)C(=O)N(C)c3ccccc3)[C@H]2Oc2ccc(OC)c(OC(C)C)c2)[C@](C)(O)C[C@@H](C)CN[C@H](C)[C@@H](O)[C@]1(C)O [Example C-34] | 16 | 16 | 28 |
| CC[C@H]1OC(=O)[C@H](C)[C@@H](O)[C@H](C)[C@@H](O[C@@H]2O[C@H](C)C[C@H](N(C)C(=O)N(C)c3ccccc3)[C@H]2Oc2ccc3ncccc3c2)[C@](C)(O)C[C@@H](C)CN(C)[C@H](C)[C@@H](O)[C@]1(C)O [Example C-35] | 18 | >250 | 12 |
| CCOc1cccc(O[C@H]2[C@H](O[C@@H]3[C@@H](C)[C@H](O)[C@@H](C)C(=O)O[C@H](CC)[C@@](C)(O)[C@H](O)[C@@H](C)NC[C@H](C)C[C@@]3(C)O)O[C@H](C)C[C@@H]2N(C)C(=O)N(C)c2ccc(N(C)C)cc2)c1 [Example C-36] | 10 | 16 | 2 |
| CCOc1cccc(O[C@H]2[C@H](O[C@@H]3[C@@H](C)[C@H](O)[C@@H](C)C(=O)O[C@H](CC)[C@@](C)(O)[C@H](O)[C@@H](C)NC[C@H](C)C[C@@]3(C)O)O[C@H](C)C[C@@H]2N(C)C(=O)N(C)c2ccccc2)c1 [Example C-37] | < 1 | 16 | 5 |
| CC[C@H]1OC(=O)[C@H](C)[C@@H](O)[C@H](C)[C@@H](O[C@@H]2O[C@H](C)C[C@H](N(C)C(=O)N(C)c3ccccc3)[C@H]2Oc2ccccc2Cl)[C@](C)(O)C[C@@H](C)CN[C@H](C)[C@@H](O)[C@]1(C)O [Example C-38] | 26 | 16 | 5 |
| CC[C@H]1OC(=O)[C@H](C)[C@@H](O)[C@H](C)[C@@H](O[C@@H]2O[C@H](C)C[C@H](N(C)C(=O)N(C)c3ccccc3)[C@H]2Oc2cc(F)c(OC)c(F)c2)[C@](C)(O)C[C@@H](C)CN[C@H](C)[C@@H](O)[C@]1(C)O [Example C-42] | 12 | 16 | 5 |
| CC[C@H]1OC(=O)[C@H](C)[C@@H](O)[C@H](C)[C@@H](O[C@@H]2O[C@H](C)C[C@H](N(C)C(=O)N(C)c3ccc(C#N)cc3)[C@H]2Oc2ccccc2Cl)[C@](C)(O)C[C@@H](C)CN[C@H](C)[C@@H](O)[C@]1(C)O [Example C-43] | 32 | 16 | 21 |
| CC[C@H]1OC(=O)[C@H](C)[C@@H](O)[C@H](C)[C@@H](O[C@@H]2O[C@H](C)C[C@H](N(C)C(=O)N(C)c3ccccc3)[C@H]2Oc2cc(F)c(OC)c(F)c2)[C@](C)(O)C[C@@H](C)CN(C)[C@H](C)[C@@H](O)[C@]1(C)O [Example C-49] | 136 | 6 | 181 |
| CC[C@H]1OC(=O)[C@H](C)[C@@H](O)[C@H](C)[C@@H](O[C@@H]2O[C@H](C)C[C@H](N(C)C(=O)N3CCOc4ccccc43)[C@H]2Oc2ccccc2)[C@](C)(O)C[C@@H](C)CN(C)[C@H](C)[C@@H](O)[C@]1(C)O [Example D-2] | 148 | 16 | 40 |
| CC[C@H]1OC(=O)[C@H](C)[C@@H](O)[C@H](C)[C@@H](O[C@@H]2O[C@H](C)C[C@H](N(C)C(=O)N3CCOc4ccccc43)[C@H]2Oc2ccccc2)[C@](C)(O)C[C@@H](C)CN[C@H](C)[C@@H](O)[C@]1(C)O [Example D-3] | 50 | 16 | 20 |
| CC[C@H]1OC(=O)[C@H](C)[C@@H](O[C@H]2C[C@@](C)(OC)[C@](O)(CNCC3CC3)[C@H](C)O2)[C@H](C)[C@@H](O[C@@H]2O[C@H](C)C[C@H](N(C)C)[C@H]2Oc2ccc(F)cc2)[C@](C)(O)C[C@@H](C)CN[C@H](C)[C@@H](O)[C@]1(C)O [Example E-37] | 17 | 16 | 6 |
| CC[C@H]1OC(=O)[C@H](C)[C@@H](O[C@H]2C[C@@](C)(OC)[C@](O)(CNn3ccnc3)[C@H](C)O2)[C@H](C)[C@@H](O[C@@H]2O[C@H](C)C[C@H](N(C)C)[C@H]2Oc2ccccc2)[C@](C)(O)C[C@@H](C)CN[C@H](C)[C@@H](O)[C@]1(C)O [Example E-40] | 55 | 40 | 11 |
| CCCNC[C@]1(O)[C@H](C)O[C@@H](O[C@H]2[C@H](C)[C@@H](O[C@@H]3O[C@H](C)C[C@H](N(C)C)[C@H]3Oc3ccc4ncccc4c3)[C@](C)(O)C[C@@H](C)CN[C@H](C)[C@@H](O)[C@](C)(O)[C@@H](CC)OC(=O)[C@@H]2C)C[C@@]1(C)OC [Example E-69] | 68 | 16 | 19 |
| CCCNC[C@]1(O)[C@H](C)O[C@@H](O[C@H]2[C@H](C)[C@@H](O[C@@H]3O[C@H](C)C[C@H](NC)[C@H]3Oc3ccccc3OCC)[C@](C)(O)C[C@@H](C)CN[C@H](C)[C@@H](O)[C@](C)(O)[C@@H](CC)OC(=O)[C@@H]2C)C[C@@]1(C)OC [Example E-78] | 54 | 17 | 16 |
| CCCNC[C@]1(O)[C@H](C)O[C@@H](O[C@H]2[C@H](C)[C@@H](O[C@@H]3O[C@H](C)C[C@H](NC)[C@H]3Oc3ccc(S(C)(=O)=O)cc3)[C@](C)(O)C[C@@H](C)CN[C@H](C)[C@@H](O)[C@](C)(O)[C@@H](CC)OC(=O)[C@@H]2C)C[C@@]1(C)OC [Example E-80] | 65 | >250 | 45 |
| CCCNC[C@]1(O)[C@H](C)O[C@@H](O[C@H]2[C@H](C)[C@@H](O[C@@H]3O[C@H](C)C[C@H](NC)[C@H]3Oc3ccc(C(N)=O)cc3)[C@](C)(O)C[C@@H](C)CN[C@H](C)[C@@H](O)[C@](C)(O)[C@@H](CC)OC(=O)[C@@H]2C)C[C@@]1(C)OC [Example E-110] | 175 | >500 | 125 |
| CC[C@H]1OC(=O)[C@H](C)[C@@H](O[C@H]2C[C@@](C)(OC)[C@](O)(CN(C)CCN(C)C)[C@H](C)O2)[C@H](C)[C@@H](O[C@@H]2O[C@H](C)C[C@H](N(C)C)[C@H]2Oc2ccc(F)cc2)[C@](C)(O)C[C@@H](C)CN[C@H](C)[C@@H](O)[C@]1(C)O [Example E-113] | 40 | 40 | 17 |
| CC[C@H]1OC(=O)[C@H](C)[C@@H](O[C@H]2C[C@@](C)(OC)[C@](O)(CNCCN(C)C)[C@H](C)O2)[C@H](C)[C@@H](O[C@@H]2O[C@H](C)C[C@H](N(C)C)[C@H]2Oc2ccc(F)cc2)[C@](C)(O)C[C@@H](C)CN[C@H](C)[C@@H](O)[C@]1(C)O [Example E-114] | 52 | 40 | 13 |

— patent US12390441B2, “Immunomodulating o-het/aryl azalides” (Zoetis Services LLC, priority 2020, dated 2025)
